Data as given in patent publication US20200254065A1, “LONG-ACTING GLP-2 ANALOGS” (OPKO Biologics Ltd., priority 2019, published 2020).
Marks after values point to notes of the source that are not given here. Square brackets hold non-standard residues; d marks the D form. Peptide text beside a SMILES is read from it. Nle = CCCC[C@H](N)C(=O)O

Experiments:
small intestine = test: Intestine weight model in rats; format: in vivo, SD rats; details: for Small intestine weight increase over vehicle (%): MAL-FMS-V4 compared to Vehicle 2
Method in brief: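 Rat intestinal growth model: conjugates given s.c. at 0.5–8.0 mg/kg peptide dose, as one injection, on days 1 and 3, or every 6 days; small intestine weighed on day 3, 6, 7, 10, 12 or 14. Histology (H&E, duodenum/jejunum/ileum) gave crypt+villus length. Both reported as % increase over vehicle.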

[1] = Pharmacokinetics of modified GLP-2 variants in rats; format: in vivo; details: rat, serum, peptide dose 15 mg/kg
[2] = Stability of GLP-2 analogues on incubation at 37° C. (appearance, O.D. reading, RP-HPLC); format: physicochemical; details: following 48 h incubation at 37° C.
Description: The GLP-2 analogues were tested for stability via appearance, O.D. reading (A.280, and A.325) and RP-HPLC (purity, and peak area) following t=0, 1 day, and 48 h incubation at 37° C.

[3] = PK after single IV injection in rats; format: in vivo; details: rat, in vivo, iv, 2 mg/kg
Source text: Blood samples were collected at 0.5, 2, 4, 8, 12, 24, 36, 48, 72, 96- and 120-hours post-dose administration.

GLP-2 receptor = target: T1, GLP-2 receptor (Homo sapiens, UniProt O95838); test: GLP-2 receptor Cell Based Assay (CBA)
T1 sequence (O95838 1-553): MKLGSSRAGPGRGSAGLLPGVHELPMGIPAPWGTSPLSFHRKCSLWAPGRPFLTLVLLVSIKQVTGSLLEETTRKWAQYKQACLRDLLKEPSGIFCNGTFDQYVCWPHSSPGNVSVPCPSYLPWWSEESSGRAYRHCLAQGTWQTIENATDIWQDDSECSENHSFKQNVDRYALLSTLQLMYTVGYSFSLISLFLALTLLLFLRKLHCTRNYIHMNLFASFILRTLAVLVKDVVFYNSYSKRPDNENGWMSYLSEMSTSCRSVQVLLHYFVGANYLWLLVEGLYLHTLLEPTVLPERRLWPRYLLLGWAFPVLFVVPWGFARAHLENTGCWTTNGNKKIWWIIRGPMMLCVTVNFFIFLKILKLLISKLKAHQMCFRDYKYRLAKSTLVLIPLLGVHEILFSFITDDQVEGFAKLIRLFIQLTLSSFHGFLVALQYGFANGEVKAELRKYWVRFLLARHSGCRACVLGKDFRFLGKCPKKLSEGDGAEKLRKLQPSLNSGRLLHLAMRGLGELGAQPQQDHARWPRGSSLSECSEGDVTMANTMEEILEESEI
Description: Evaluation of in vitro binding affinity of the different peptides was assessed by using Cell Based Assay (CBA) in the presence of escalating doses of the different peptides.

half-life [1]: 17.5 h
Solubility via appearance [2]: V4: clear
AUC(0-inf) [3]: 36.2 µM·h
AUC(0-t) [3]: 33.7 µM·h
Cl/F_obs [3]: 0.015 (μmol/kg)/(μmol/L)/h
Cmax [3]: 7.1 µM
Tmax [3]: 0.5 h
Vz/F_obs [3]: 0.068 (μmol/kg)/(μmol/L)
half-life [3]: 3.2 h
EC50 Ratio to Teduglutide (GLP-2 receptor; Table 7): 3.8
EC50 Ratio to Teduglutide (GLP-2 receptor; Table 8, average of 3 independent CBA): 1.8
Compound: CCCC[C@H](NC(=O)[C@H](CCC(=O)O)NC(=O)[C@H](CC(=O)O)NC(=O)[C@H](CO)NC(=O)[C@H](Cc1ccccc1)NC(=O)[C@H](CO)NC(=O)CNC(=O)[C@H](CCC(=O)O)NC(=O)CNC(=O)[C@@H](N)Cc1c[nH]cn1)C(=O)N[C@@H](CC(N)=O)C(=O)N[C@H](C(=O)N[C@H](C(=O)N[C@@H](CC(C)C)C(=O)N[C@@H](CC(=O)O)C(=O)N[C@@H](CC(C)C)C(=O)N[C@@H](CC(C)C)C(=O)N[C@@H](C)C(=O)N[C@@H](C)C(=O)N[C@@H](CCCNC(=N)N)C(=O)N[C@@H](CC(=O)O)C(=O)N[C@@H](Cc1ccccc1)C(=O)N[C@H](C(=O)N[C@@H](CC(N)=O)C(=O)N[C@@H](Cc1c[nH]c2ccccc12)C(=O)N[C@@H](CC(C)C)C(=O)N[C@H](C(=O)N[C@@H](CCC(N)=O)C(=O)N[C@H](C(=O)N[C@@H](CCCCN)C(=O)N[C@H](C(=O)N[C@H](C(=O)N[C@@H](CC(=O)O)C(N)=O)[C@@H](C)O)[C@@H](C)CC)[C@@H](C)O)[C@@H](C)CC)[C@@H](C)CC)[C@@H](C)CC)[C@@H](C)O [Variant 4] (H-HGEGSFSDE[Nle]NTILDLLAARDFINWLIQTKITD-NH2)
Small intestine weight percent increase over vehicle (FIG. 12) (small intestine; Study 15203, single SC 2 mg/kg peptide content on Day 1, Days 6 and 10): the most favorable results
Small intestine weight percent increase over vehicle (FIG. 15) (small intestine; Study 15205, single SC 0.5, 2.0 or 8.0 mg/kg, Days 3, 7 and 14): reached maximal acute response at day 3
Increase of intestine weight over vehicle (%) (small intestine; modified peptides, two injections on days 1 & 3 at 1 mg/kg, intestine weight on day 6): 89%
Avg. small intestine weight (gr) (small intestine; normal SD rats, injected once at 2 mg/kg peptide dose, 6th day): 7.0 gr
Small intestine weight increase over vehicle (%) (small intestine; normal SD rats, injected once at 2 mg/kg peptide dose, 6th day, listed as V4, 2 mg/kg): 43.0** %
Small intestine weight increase over vehicle (%) (small intestine; normal SD rats, injected once at 2 mg/kg peptide dose, 6th day, listed as V4 peptide, 2 mg/kg): the most pronounced effect on the small intestine weight
Detectability in blood after IV administration [3]: could not be detected 24 hours post injection
